Where only a bound is given, the exact number is not on record here.

The subject of this assay is cucumber anthracnose (黄瓜炭疽病). Put plainly: In vivo protective activity against cucumber anthracnose (potted plants, inoculation 24 h after spraying).

In the case of `O=C(NCCc1ccc(F)cc1)c1ccc(-c2cccs2)nc1CCl` [24.3], the control effect is on record as 98% (6.5 mg/L), 100% (25 mg/L), more than 98% (100 mg/L) and 100% (400 mg/L).

The values above are taken from patent publication CN105777727A, “2-噻吩吡啶类化合物及其用途” (Shenyang Sinochem Agrochemicals R&D Co Ltd, priority 2014, dated 2016).
